Values of other authors, collected in patent publication US20250127746A1, “TOPICAL CONTACT SENSITIZERS TO TREAT CANCER” (Squarex Pharmaceutical Corporation, priority 2023, published 2025).
“Also recorded” adds a separate entry of the source.

Key:
common warts = conditions: Candida injected, SADBE applied topically
[1] = tested on: PBMCs stimulated with HSV-1
[2] = tested on: herpes labialis outbreaks
[3] = prevention of cold sore episodes

## CCCCOc1c(OCCCC)c(=O)c1=O [SADBE, 3,4-Dibutoxy-3-cyclobutene-1,2-dione]
Common warts
  efficacy to treat common warts: effective in treating warts; also recorded: effective to treat common warts
[1]; 8 weeks after a topical application to the arm
  expression of interferon gamma (IFNG) by isolated PBMCs exposed to HSV: increased
[1]; 56 days after a single topical dose, versus day 1
  PBMC proliferation and immune gene expression profile versus subjects with infrequent or zero outbreaks: more like those of the subjects with infrequent or zero outbreaks
[1]; single dose, against both herpes simplex virus and Candida extract
  change of immune response type: from a type 2 immune response to a type 1 immune response
[2]; [3]
  time after which efficacy begins to wane: 3 to 4 months
  time for a dose to take effect: 2 to 8 weeks
[2]; topical application to the arm
  number of oral herpes (herpes labialis) outbreaks: effective in preventing (reducing the number of) herpes labialis episodes; also recorded: reduce frequency of herpes labialis outbreaks; also recorded: prevent and reduce the number of oral herpes outbreaks
